{"source": "patent US9828630B2", "about": "“Methods of enhancing genetic diagnosis” (BioLamina AB, priority 2011, dated 2017)", "key": {"[1]": {"system": "human ES cells", "experiment": "Cell survival assay, 24 hours (1 day) after plating from single cell suspension", "format": "cell-based", "conditions": "for survival / attachment of dissociated hES cells 24 hours (one day) after plating: single cell suspension, O3 medium, no ROCK inhibitor", "protocol": "(§1) The assay was performed as described (Extracellular Matrix Protocols, 2000). Briefly, 96-well plates were coated by extracellular matrix proteins as described above and blocked by O3 medium containing bovine serum albumin. The ES cells were plated at a cell density of 600 cell/mm^2 upon extracellular matrix-coated plates and were left to adhere for either 1 hour or 1 day at the cell incubator. Non-adherent cells were washed away, and adherent cells were fixed for 20 min by 5% glutaraldehyde, stained by 0.1% Crystal Violet.\n(§2) The survival assay was performed as described for the cell adhesion assay above, except that the cells were left in the cell incubator for 24 hours. For inhibition of survival assay, the cells were kept in a medium with function blocking antibodies at the concentrations recommended by the manufacturer or pathway inhibitors at concentrations indicated in the text for 30 minutes, and then plated on the coated dishes. All the experiments were performed in quadruplicate.\nPluripotent hES cells express α1, α5, β1, β2 and γ1 laminin chains. To compare the adhesion and clonal survival of hES cells plated from single cell suspension to different coating substrata, hES cells growing as monolayers on LN-511 or as clusters on a feeder layer were trypsinized into single cell suspension in O3 medium and plated on cell culture dishes coated with Matrigel, LN-111, LN-511, LN-521 or a mixture of LN-511 and LN-521, in the absence or presence of a ROCK inhibitor (Y-27632) and analyzed after 24 hours."}, "[2]": {"system": "hES cells", "experiment": "Clonal survival of individualized hES cells at 250 cells per cm^2", "format": "cell-based, human", "conditions": "laminin-521/E-Cadherin matrix", "protocol": "hES cells were plated in mTeSR1 medium on different coatings at a density of 250 cells per cm^2 and monitored after 5 days in culture using an alkaline phosphatase staining kit.\nNext, combinations of laminin-521 and E-Cadherin were tested to determine whether the combinations could sustain clonal survival of the cells. Fixed amounts of laminin-521 were used for the cell culture dish coating in combination with titrated E-Cadherin.\nAdditional tests were performed to test the effects of various modifications to the mTeSR1 medium. A mixture of E-Cadherin to laminin-521 in a ratio of about 1:10 w/w was used to coat the plates. […] Time-lapse photography of the cells confirmed that laminin-521/E-Cadherin coatings facilitated cell survival through proliferation of the single cells, not through the aggregation of different cells."}, "[3]": {"system": "human ES cells", "experiment": "Cell adhesion assay, 1 hour after plating on coated plates", "format": "cell-based", "protocol": "as §1\nBriefly, 96-well plates were coated by extracellular matrix proteins as described above and blocked by O3 medium containing bovine serum albumin. The ES cells were plated at cell density of 50,000 cells/cm^2 onto extracellular matrix-coated plates and left to adhere for 1 hour in a cell incubator. After that the plates were washed 3 times with the medium to remove the non-adherent cells, and then the adherent cells were fixed for 20 minutes by 5% glutaraldehyde, stained by 0.1% Crystal Violet. (Kebo Lab, Spanga, Sweden, http://www.kebolab.se). After one hour and 3 washes with water, Crystal Violet was extracted with 10% acetic acid and quantified by measuring optical density at 570 nm. All the experiments were performed in quadruplicate."}, "[4]": {"system": "human ES and iPS cells", "conditions": "human ES cells grown on laminin-511; cited from earlier work"}, "[5]": {"system": "mouse ES cells", "conditions": "without LIF or feeder cells; cited from earlier work"}, "[6]": {"system": "Akt and MEK1", "experiment": "Western blot of inhibitor treated and control cells one hour after plating on LN-521", "format": "cell-based, human", "conditions": "one hour after plating on LN-521, FIG. 18 and 19", "protocol": "HS 181 cells were trypsinized into single cell suspension as described above. For inhibition experiments, the cells were kept in O3 medium with blocking antibodies or pathway inhibitors for 30 minutes and then […] cells were plated on 35 mm dishes precoated with the appropriate matrix coating. For other experiments, same number of cells was plated directly after trypsinization. In all cases the cells were allowed to spread for 1 hour at 37° C., 5% CO2. After two washings in ice-cold PBS, the plates with cells were snap frozen in liquid nitrogen and stored at -80° C. To prepare samples for western blots and ELISA, the plates were slowly thawed and kept on ice with 100-150 μl of lysis buffer (50 mM Tris-HCl, pH7.5, 150 mM NaCl, 0.5% deoxycholate, 0.5% SDS, 1% Triton X-100, 1% Igepal, CompleteTM (Roche) and Phospho-StopTM (Roche)) on top. Then, the cells were scraped, pipetted and sheared through a 27 G 3⁄4'' needle. After that, the cell pellets were clarified by centrifugation at 16,100 rcf for 15 minutes at 4° C. For western blots, 4-12% gradient gels were used for SDS electrophoresis and the proteins were transferred to PVDF membranes. The membrane was hybridized with the antibody of interest according to the manufacturer's instructions. […] For the densitometry analysis the films were scanned at 2,400 dpi and analyzed by the […]5500 program (1 D-Multi Line densitometry mode). […]"}, "[7]": {"system": "human ES cells on LN-521", "experiment": "Inhibition of survival assay on LN-521 (function blocking antibodies, pathway inhibitors)", "format": "cell-based", "conditions": "medium contained bFGF, FIG. 16", "protocol": "as §2"}}, "note": "Entries after “also recorded” stand apart in the source; their conditions may differ.", "data": [{"compound": "C[C@@H](N)[C@H]1CC[C@H](C(=O)Nc2ccncc2)CC1", "note": "[Y-27632]", "values": [{"measurement": "attachment / survival of hES cells 24 hours after plating in presence of ROCK inhibitor", "setting": "[1]; O3 medium with Y-27632, Matrigel, LN-111, LN-511, LN-521 and mixture coatings", "result": "remained attached on all 5 coatings; also recorded: survived on all surfaces"}, {"measurement": "cell shape 24 hours after plating on LN-521", "setting": "[1]; absence or presence of ROCK inhibitor", "result": "spindle or crescent like shape"}]}, {"compound": "human recombinant LN-111: human recombinant laminin of α1, β1 and γ1 chains from triple transfected HEK293 cells", "values": [{"measurement": "survival / attachment of dissociated hES cells 24 hours (one day) after plating", "setting": "[1]", "result": "failed to survive"}]}, {"compound": "albumin", "values": [{"measurement": "effect of 2× increase in albumin concentration in mTeSR1 on clonal survival", "setting": "[2]", "result": "significantly improved clonal survival"}]}, {"compound": "LN-511: human recombinant laminin-511 coating", "values": [{"measurement": "survival / attachment of dissociated hES cells 24 hours (one day) after plating", "setting": "[1]", "result": "did so as single cells; also recorded: very few"}, {"measurement": "survival / attachment of dissociated hES cells 24 hours (one day) after plating", "setting": "[1]; listed as human r-laminin-511", "result": "at a less extent"}, {"measurement": "survival / attachment of dissociated hES cells 24 hours (one day) after plating", "setting": "[1]; listed as laminin-511", "result": "in most cases"}, {"measurement": "adhesion of human ES cells after 1 hour", "setting": "[3]; O3 medium without any additives, without Y-27632, FIG. 6", "result": "roughly the same"}, {"measurement": "spreading of the cells after one hour compared with Matrigel or LN-111", "setting": "[3]; dissociated hES cells, not shown", "result": "clearly better"}, {"measurement": "time hES cells maintain pluripotency and can generate teratomas in SCID mice", "setting": "[4]", "result": "over 3 months"}, {"measurement": "time of self-renewal of mouse ES cells", "setting": "[5]", "result": "over 5 months"}]}, {"compound": "COc1cccc(-c2cc(=O)c3ccccc3o2)c1N", "note": "[PD 98059]", "values": [{"measurement": "efficacy of inhibitor treatment by western blot", "setting": "[6]", "result": "confirmed"}, {"measurement": "survival of hES cells 24 hours after plating on LN-521 with pathway inhibitor", "setting": "[7]", "result": "did not affect the survival that severely"}]}, {"compound": "LN-121: human recombinant laminin of α1, β2 and γ1 chains from triple transfected HEK293 cells", "values": [{"measurement": "survival / attachment of dissociated hES cells 24 hours (one day) after plating", "setting": "[1]", "result": "failed to survive"}]}, {"compound": "LN-111: mouse laminin-111 (Invitrogen), indicated as LN-111 if not otherwise stated", "values": [{"measurement": "survival / attachment of dissociated hES cells 24 hours (one day) after plating", "setting": "[1]", "result": "did not survive; also recorded: almost no cells had survived"}, {"measurement": "survival / attachment of dissociated hES cells 24 hours (one day) after plating", "setting": "[1]; listed as mouse laminin-111", "result": "almost no cells remained attached"}]}]}
